Assays:
[1] = target: T1, EEF2 (Homo sapiens, UniProt P13639); test: competitive isoTOP-ABPP, MDA-MB-231 soluble proteome; format: binding; settings: 100 μM LDE, 60 min; peptide STLTDSLVC*K
T1 construct: directly in native proteomes; endogenous in cells; host or cells: MDA-MB-231
Protocol: (§1) Here, we envisioned that isoTOP-ABPP could be advanced to discover and quantify reactions between cysteines in proteomes and any electrophilic compound. In this advanced, ‘competitive’ version of isoTOP-ABPP (FIG. 1a), a proteome is treated with an electrophile (experimental sample) or DMSO (control sample). Both proteomic samples are then labeled with the IA probe and conjugated by CuAAC to light and heavy azide-biotin tags, respectively. The light and heavy samples are then mixed and subjected to our described isoTOP-ABPP protocol for enrichment, identification, and quantification of IA-labeled cysteines^30. Electrophile-modified cysteines are quantified by measuring the MS1 chromatographic peak ratios (R values) for heavy (DMSO-treated) over light (electrophile-treated) samples, with higher R values reflecting greater sensitivity to the electrophile. In this format, competitive isoTOP-ABPP can assay electrophiles against 1000+ cysteines in parallel directly in native proteomes without requiring any chemical modification to the electrophiles themselves.
(§2) Competitive isoTOP-ABPP experiments were performed in quadruplicate using the soluble proteome of the human breast cancer cell line MDA-MB-231 cell line. Proteomes were treated with 100 μM HNE, 15d-PGJ2, or 2-HD, for 60 minutes, followed by the IA-probe (100 μM, 60 min) A total of ˜1400 cysteine reactivities were quantified across the aggregate data set, with at least 900 cysteine reactivities quantified for each LDE (FIG. 2a) more than 750 of which were quantified for all the three electrophiles.
(§3) The MDA-MB-231 cell proteome was treated with varying concentrations of HNE (5, 10, 50, 100 and 500 μM) for 60 min and then the IA-labeling profile of each reaction was quantitatively compared to a DMSO-control sample by isoTOP-ABPP.
(§4) HNE was purchased from EMD biosciences, 15d-PGJ2 was purchased from Cayman Chemicals and 2-HD was purchased from Santa Cruz Biotechnology. Proteome samples were diluted to a 4 mg protein/mL solution in PBS. For each profiling experiment, one aliquot of the proteome sample (0.5 mL) was treated with 100 μM of LDE using 5 μL of a 10 mM stock and the other aliquot was treated with 5 μL of either ethanol (for HNE and 15d-PGJ2) or DMSO (for 2-HD) as control. For the concentration-dependent profiling experiments using HNE, aliquots of the proteomes (0.5 mL each) were treated with 5, 10, 50, 100 and 500 μM of HNE using 5 μL of 0.5, 1.0, 5, 10 and 50 mM of stock solution, respectively. After 60 minutes of treatment at room temperature, both the LDE-treated and control aliquots were passed through a NAP-5 Sephadex column (GE healthcare) to remove any unreacted LDE. The volume of each aliquot was increased to 1 mL with the concentration at 2 mg/mL after this step.
(§5) Each of the control and LDE-treated proteome samples (˜2 mg protein/mL in 1 mL volume) was treated with 100 μM of IA-probe using 10 μL of a 10 mM stock in DMSO. The labeling reactions were incubated at room temperature for 1 hour. Click chemistry (acetylene-azide cycloaddition) was performed by the addition of 100 μM of either the Heavy-TEV-Tag (for the control sample) or Light-TEV-Tag (for the LDE-treated sample) (20 μL of a 5 mM stock), 1 mM TCEP (fresh 50× stock in water), 100 μM ligand (17× stock in DMSO:t-Butanol 1:4) and 1 mM CuSO4 (50× stock in water). Samples were allowed to react at room temperature for 1 hour. After the click chemistry step, the light and heavy-labeled samples were mixed together and centrifuged (5900×g, 4 min, 4° C.) to pellet the precipitated proteins.
(§6) The pellets were washed twice in cold MeOH, after which the pellet was solubilized in PBS containing 1.2% SDS via sonication and heating (5 min, 80° C.). Samples were subjected to streptavidin enrichment of probe-labeled proteins, sequential on-bead trypsin and TEV digestion, and liquid chromatography-mass spectrometry (LC-MS) analysis according to the published isoTOP-ABPP protocol^30. […]

[2] = target: T2, RTN4 (Homo sapiens, UniProt Q9NQC3); test: as above; format: binding; settings: 100 μM LDE, 60 min; peptide YSNSALGHVNC*TIK
T2 construct: directly in native proteomes; endogenous in cells; host or cells: MDA-MB-231
T2 sequence (Q9NQC3 1-1192): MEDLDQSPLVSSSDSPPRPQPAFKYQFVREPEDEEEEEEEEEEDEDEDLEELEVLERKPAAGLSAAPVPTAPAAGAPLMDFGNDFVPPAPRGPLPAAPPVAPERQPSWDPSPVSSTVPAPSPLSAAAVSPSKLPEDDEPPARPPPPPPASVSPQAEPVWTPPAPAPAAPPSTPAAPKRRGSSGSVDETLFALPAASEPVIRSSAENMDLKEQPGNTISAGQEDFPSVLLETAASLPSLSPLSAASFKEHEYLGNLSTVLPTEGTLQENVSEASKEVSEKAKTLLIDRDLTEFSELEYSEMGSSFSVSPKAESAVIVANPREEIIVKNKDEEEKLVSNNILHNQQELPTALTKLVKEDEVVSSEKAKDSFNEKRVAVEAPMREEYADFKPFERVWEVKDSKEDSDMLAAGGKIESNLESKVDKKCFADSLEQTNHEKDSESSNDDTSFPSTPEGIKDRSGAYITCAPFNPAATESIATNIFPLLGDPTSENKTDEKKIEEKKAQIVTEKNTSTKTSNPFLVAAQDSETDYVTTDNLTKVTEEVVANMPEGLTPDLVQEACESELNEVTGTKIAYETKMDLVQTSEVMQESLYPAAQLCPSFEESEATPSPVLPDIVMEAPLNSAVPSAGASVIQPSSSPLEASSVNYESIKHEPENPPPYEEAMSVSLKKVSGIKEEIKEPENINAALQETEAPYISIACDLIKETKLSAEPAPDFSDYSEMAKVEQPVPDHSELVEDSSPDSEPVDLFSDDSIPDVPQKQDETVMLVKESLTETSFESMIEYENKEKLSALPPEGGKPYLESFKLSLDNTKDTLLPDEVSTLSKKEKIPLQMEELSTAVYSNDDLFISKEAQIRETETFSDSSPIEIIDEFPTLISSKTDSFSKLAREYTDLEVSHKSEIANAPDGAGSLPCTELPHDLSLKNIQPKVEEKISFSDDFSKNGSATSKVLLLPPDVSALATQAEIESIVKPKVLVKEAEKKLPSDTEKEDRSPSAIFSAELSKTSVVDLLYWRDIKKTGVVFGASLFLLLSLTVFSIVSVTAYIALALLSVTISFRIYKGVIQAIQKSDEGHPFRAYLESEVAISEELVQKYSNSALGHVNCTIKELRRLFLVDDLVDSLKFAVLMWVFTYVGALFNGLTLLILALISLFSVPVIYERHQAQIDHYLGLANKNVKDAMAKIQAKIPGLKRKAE
Protocol: as §1, §2, §3, §4, §5, §6

Compound | R value (isoTOP-ABPP ratio heavy/light) for IA-labeled cysteine of EEF2 [1] | R value (isoTOP-ABPP ratio heavy/light) for IA-labeled cysteine of RTN4 [2]
CCCCCCCCCCCCC/C=C/C=O [2-HD, 2-trans-hexadecenal] | 1.06 | 1.1
CCCCCC(O)/C=C/C=O (stereo not drawn) [4-HNE, 4-Hydroxynonenal] | 11.63 | 11.78
CCCCC/C=C/C=C1/C(=O)C=C[C@@H]1C/C=C\CCCC(=O)O [PGJ2, 15-deoxy-Δ12,14-prostaglandin J2] | 3.31 | 2.93

— patent US10782295B2, “Cysteine-reactive ligand discovery in proteomes” (THE SCRIPPS RESEARCH INSTITUTE, priority 2013, dated 2020)
